Laboratory results reported in patent publication US20170128459A1, “PHARMACEUTICAL COMPOSITION CONTAINING SIRT2 INHIBITOR” (Industrial Cooperation Foundation Chonbuk National …, priority 2014, published 2017).

Assays:
[1] = system: mouse proximal tubule cells; assay: Cell proliferation test (XTT); assay type: cell-based; details: 24 hours, 1% FBS
Protocol: Specifically, the cell proliferation test was performed by treating mouse proximal tubule cells with trypsin, the cells were put in a 96-well plate at 1×10^3 cells for each well, cultured for 24 hours at 37° C., the culture medium was removed, and each of AGK2, AK-1, cisplatin, cisplatin+AGK2, and cisplatin+AK-1 was treated with a culture medium containing 1% FBS. After culturing for 24 hours at 37° C., the degree of cell proliferation was measured using a cell proliferation kit (Cell proliferation Kit II, XTT, Roche, Mannheim, Germany). As cells proliferate, the amount of color-developing material of mitochondria within cells increases, and thus the absorbance increases. Therefore, the proliferation of the mouse proximal tubule cells was determined based on the absorbance, and the results are provided in FIG. 34.

[2] = system: mouse proximal tubule cells; assay: Cell damage caused by cisplatin (number of adhesion cells, microscopy); assay type: cell-based
Protocol: To confirm if an SIRT2 inhibitor has an effect of inhibiting cell damage caused by cisplatin, the effects of AGK2 and AK-1, which are SIRT2 inhibitors, when the mouse proximal tubule cells were treated with cisplatin were examined. Specifically, mouse proximal tubule cells were treated with AGK2 (10 μM) and AK-1 (10 μM), which are SIRT2 inhibitors, 30 minutes prior to being treated with cisplatin (20 μg/ml) for 48 hours, and the cells were visualized by a Zeiss Z1 microscope.

CCL2 = CCL2 mRNA expression by qRT-PCR in LPS-treated mouse proximal tubule cells; assay type: cell-based; details: AK-1 10 μM 30 minutes prior to 1-hour LPS (10 μg/ml); compared with LPS-increased expression
Protocol: (§1) Mouse proximal tubule cells, which were donated by Dr Lloyd G. Cantley (Yale University School of Medicine, New Haven, Conn., US), were prepared by culturing, in an α-MEM medium containing added fetal bovine serum at 10% (vol/vol), under conditions including a humidified atmospheric condition of 5% CO2 and 95% air and a temperature condition of 37° C.
(§2) To remove the SIRT2 gene from the cells, siRNA (100 pmol, Dharmacon ON-TARGETplus SMARTpool, Dharmacon Inc., CO, US) and 10 μl Lipofectamine® 2000 (Invitrogen™, Carlsbad, Calif., US) were diluted in an Opti-MEM medium for the cell treatment, and, 7 hours later, the cells were transferred into a cell culture medium for cell culture. 2 days after the initiation of the cell culture, the cells were collected and a decrease in an SIRT2 protein was observed therefrom.
1, 3, and 6 hours after the treatment with the LPS and the CB following the SIRT2 siRNA treatment, the cell culture medium, RNA, and proteins were collected to perform quantitative real-time PCR (qRT-PCR) and an enzyme linked immunosorbent assay.
The CCL2 expression pattern was observed by the method of Example 4.
(§3) Mouse proximal tubule cells were treated with AK-1 (10 μM), which is an SIRT2 inhibitor, 30 minutes prior to a 1-hour treatment with an LPS (10 μg/ml). The cells were collected and CXCL2 and CCL2 mRNA expression levels thereof were determined through qRT-PCR.

CXCL2 = CXCL2 mRNA expression by qRT-PCR in LPS-treated mouse proximal tubule cells; assay type: cell-based; details: AK-1 10 μM 30 minutes prior to 1-hour LPS (10 μg/ml); compared with LPS-increased expression
Protocol: as §1, §2
1, 3, and 6 hours after the treatment with the LPS and the CB following the SIRT2 siRNA treatment, the cell culture medium, RNA, and proteins were collected to perform quantitative real-time PCR (qRT-PCR) and an enzyme linked immunosorbent assay. […]
as §3

ICAM-1 = assay: Western blot of ICAM-1 in kidney tissues after cisplatin; assay type: in vivo, mouse; details: kidney tissues of WT mice administered cisplatin
Protocol: (§4) An investigation was performed to see if the expression of ICAM-1 and VCAM-1 genes, which are molecules related to inflammatory response, in an experimental group administered cisplatin is regulated by an SIRT2 gene. Western blotting was performed by the method of the above Example 11, using ICAM-1 (Santa Cruz Biotechnology, Santa Cruz, Calif., US) and VCAM-1 (Santa Cruz Biotechnology, Santa Cruz, Calif., US) antibodies.

acetyl p53 = assay: Western blot of acetyl p53 in kidney tissues after cisplatin; assay type: in vivo; details: kidney of mouse having SIRT2 treated with cisplatin
Protocol: (§5) Generally, kidney injuries caused by cisplatin are affected by apoptosis. To determine the effect of SIRT2 gene knockout on controlling apoptosis caused by cisplatin, the acetylation of caspase-3 and p53 was observed through western blotting.
(§6) Kidney tissues were obtained by the method of the above Example 9-2 and then were homogenized to extract proteins therefrom, and the caspase-3 and acetyl p53 protein expression patterns were determined using caspase-3 and acetyl p53 antibodies (Cell Signaling Technology, Danvers, Mass. US). The same blots were peeled off to determine the exact amount of proteins using actin (Sigma-Aldrich Co. LLC., St Louis, Mo., US) and p53 (Cell Signaling Technology, Inc.).

[3] = Survival rate after cisplatin administration; assay type: in vivo, mouse; details: control group (SIRT2+/+) administered cisplatin
From the text: Based on the result, it can be seen that the knocking out an SIRT2 gene inhibits kidney injuries caused by cisplatin.

caspase-3 = assay: Western blot of caspase-3 in kidney tissues after cisplatin; assay type: in vivo, mouse; details: kidney tissues of WT mice administered cisplatin
Protocol: as §5, §6

VCAM-1 = assay: Western blot of VCAM-1 in kidney tissues after cisplatin; assay type: in vivo, mouse; details: kidney tissues of WT mice administered cisplatin
Protocol: as §4

[4] = used together with cisplatin, compared with cisplatin alone
[5] = SIRT2 inhibitor 10 μM 30 minutes prior to cisplatin 20 μg/ml for 48 hours, compared with cisplatin alone

Row | Compound | cell proliferation (XTT absorbance) [1, 4] | number of adhesion cells [2, 5] | CCL2 mRNA expression level (CCL2) | CXCL2 mRNA expression level (CXCL2) | ICAM-1 expression (ICAM-1) | p53 acetylation (acetyl p53) | survival [3] | cleaved caspase-3 expression (caspase-3) | cell proliferation (XTT absorbance) ([1]; cisplatin alone) | VCAM-1 expression (VCAM-1) | number of adhesion cells ([2]; cisplatin 20 μg/ml for 48 hours alone)
1 | O=C(Nc1cccc2ncccc12)/C(O)=C/c1ccc(-c2cc(Cl)ccc2Cl)o1 [AGK2] | significantly increased | significantly increased |  |  |  |  |  |  |  |  | 
2 | O=C(Nc1cccc([N+](=O)[O-])c1)c1cccc(S(=O)(=O)N2CCCCCC2)c1 [AK-1] | significantly increased | significantly increased | decrease | decrease |  |  |  |  |  |  | 
3 | N.N.[Cl][Pt][Cl] [cisplatin, cis-diammine-dichloroplatinum [II]] |  |  |  |  | increased | increased | all mice died in 6 days | increased | decreased | increased | decreased
